The source of these data is patent US9670142B2, “1,3-diaminocyclopentane carboxamide derivatives” (Merck Patent GmbH, priority 2013, dated 2017).

Where only a bound is given, the exact number is not on record here.

Sequence of human fatty acid synthase FASN (P49327 whole entry): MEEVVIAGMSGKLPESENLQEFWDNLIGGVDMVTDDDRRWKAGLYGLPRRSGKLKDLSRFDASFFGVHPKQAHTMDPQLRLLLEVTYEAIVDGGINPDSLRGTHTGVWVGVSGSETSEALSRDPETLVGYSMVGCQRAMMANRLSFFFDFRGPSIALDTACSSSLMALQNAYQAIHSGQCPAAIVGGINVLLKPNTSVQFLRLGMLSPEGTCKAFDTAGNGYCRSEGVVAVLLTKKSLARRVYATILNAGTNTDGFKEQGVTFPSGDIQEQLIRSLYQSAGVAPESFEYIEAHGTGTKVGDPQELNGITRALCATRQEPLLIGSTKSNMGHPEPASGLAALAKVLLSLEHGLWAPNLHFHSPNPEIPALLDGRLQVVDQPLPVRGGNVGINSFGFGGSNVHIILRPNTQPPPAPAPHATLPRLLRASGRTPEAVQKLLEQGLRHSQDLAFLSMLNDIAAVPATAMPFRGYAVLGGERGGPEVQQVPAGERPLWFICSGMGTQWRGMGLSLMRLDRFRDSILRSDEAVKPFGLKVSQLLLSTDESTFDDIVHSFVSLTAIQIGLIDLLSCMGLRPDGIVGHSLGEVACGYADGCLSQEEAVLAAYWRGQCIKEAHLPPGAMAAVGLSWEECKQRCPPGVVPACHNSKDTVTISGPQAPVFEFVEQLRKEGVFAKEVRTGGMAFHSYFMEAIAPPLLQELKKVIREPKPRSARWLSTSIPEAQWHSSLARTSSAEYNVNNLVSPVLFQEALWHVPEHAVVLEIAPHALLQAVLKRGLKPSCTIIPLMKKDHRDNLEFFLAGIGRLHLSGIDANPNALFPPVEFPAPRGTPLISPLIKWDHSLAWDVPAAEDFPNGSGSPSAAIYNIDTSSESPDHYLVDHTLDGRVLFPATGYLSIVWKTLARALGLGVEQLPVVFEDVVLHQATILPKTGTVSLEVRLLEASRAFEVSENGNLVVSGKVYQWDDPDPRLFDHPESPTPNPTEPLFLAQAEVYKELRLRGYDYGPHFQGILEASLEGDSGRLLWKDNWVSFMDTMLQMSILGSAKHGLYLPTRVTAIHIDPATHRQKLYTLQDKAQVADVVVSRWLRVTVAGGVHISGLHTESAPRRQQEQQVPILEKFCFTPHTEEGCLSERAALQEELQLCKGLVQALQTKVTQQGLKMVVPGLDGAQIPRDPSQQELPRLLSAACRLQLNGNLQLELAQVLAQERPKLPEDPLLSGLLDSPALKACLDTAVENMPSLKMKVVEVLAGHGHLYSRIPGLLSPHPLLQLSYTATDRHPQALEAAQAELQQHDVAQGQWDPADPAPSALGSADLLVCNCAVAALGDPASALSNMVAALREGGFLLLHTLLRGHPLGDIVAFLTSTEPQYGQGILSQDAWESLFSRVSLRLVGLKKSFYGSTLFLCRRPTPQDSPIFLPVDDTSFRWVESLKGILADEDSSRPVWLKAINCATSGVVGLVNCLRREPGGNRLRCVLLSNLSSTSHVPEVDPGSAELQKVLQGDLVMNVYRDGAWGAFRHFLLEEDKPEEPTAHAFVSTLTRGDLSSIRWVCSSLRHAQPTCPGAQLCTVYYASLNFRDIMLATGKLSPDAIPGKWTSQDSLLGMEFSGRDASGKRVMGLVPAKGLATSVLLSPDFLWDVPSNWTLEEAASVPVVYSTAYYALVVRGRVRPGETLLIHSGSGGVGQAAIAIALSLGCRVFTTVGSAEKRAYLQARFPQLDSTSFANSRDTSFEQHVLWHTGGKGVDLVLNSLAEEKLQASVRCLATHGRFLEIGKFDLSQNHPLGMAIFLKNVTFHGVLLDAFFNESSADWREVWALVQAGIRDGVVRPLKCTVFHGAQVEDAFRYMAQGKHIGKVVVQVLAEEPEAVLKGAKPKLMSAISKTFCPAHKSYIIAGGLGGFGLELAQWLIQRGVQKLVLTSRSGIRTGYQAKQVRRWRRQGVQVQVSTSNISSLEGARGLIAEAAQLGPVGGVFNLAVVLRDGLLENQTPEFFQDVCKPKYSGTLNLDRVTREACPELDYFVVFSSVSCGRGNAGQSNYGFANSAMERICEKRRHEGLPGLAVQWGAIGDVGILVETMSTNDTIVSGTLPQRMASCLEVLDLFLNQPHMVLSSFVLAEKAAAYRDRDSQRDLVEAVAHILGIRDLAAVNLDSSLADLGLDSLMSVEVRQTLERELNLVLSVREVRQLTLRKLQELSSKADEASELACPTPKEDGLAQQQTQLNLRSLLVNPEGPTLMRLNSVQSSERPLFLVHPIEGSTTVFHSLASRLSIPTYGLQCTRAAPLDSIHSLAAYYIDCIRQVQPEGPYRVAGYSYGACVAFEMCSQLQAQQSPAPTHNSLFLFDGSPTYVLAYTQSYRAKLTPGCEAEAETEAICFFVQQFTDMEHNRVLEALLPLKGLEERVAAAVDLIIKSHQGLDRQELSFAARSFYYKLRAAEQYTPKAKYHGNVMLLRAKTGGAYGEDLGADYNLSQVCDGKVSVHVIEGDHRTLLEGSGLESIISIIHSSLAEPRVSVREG

The test deals with human fatty acid synthase FASN (Homo sapiens (Human), UniProt P49327). Nature of the test: Biochemical activity testing of human fatty acid synthase FASN (NADPH fluorescence intensity enzyme assay). Conditions: human recombinant full-length fatty acid synthase. From the text:
Biochemical activity testing of human fatty acid synthase FASN
Fatty acid synthase FASN is a multifunctional enzyme with seven catalytic activities thereby synthesising long chain fatty acids especially palmitoyl-CoA in the presence of co-factor NADPH starting from the substrates acetyl-CoA and malonyl-CoA. The reductive synthesis is realized by the oxidation of NADPH to NADP. Since NADPH has a high fluorescence intensity quantum yield compared to NADP with excitation at 340 nm and emission at 460 nm, the reaction can be monitored via the decrease in fluorescence intensity. The biochemical FASN activity testing was performed as 384 well two-time-point kinetic fluorescence intensity assay format in Greiner low volume medium binding 384-well black microtiter plates in a total assay volume of 8 μl and was used for high throughput screen. In each well 3 μl 40 nM human recombinant full-length fatty acid synthase (produced in-house in SF9 cells) were dispensed in the following assay buffer: 50 mM potassium phosphate buffer pH 7.0, 0.005% (w/v) BSA, 2 mM Glutathione, 0.02% Tween-20. Then 2 μl of 200 μM NADPH in assay buffer were added, followed by the addition of the test compounds in 10 dilution concentrations starting with 30 μM (final concentration) to get a final DMSO content of 1% (v/v). The mixture was incubated for at least 15 min at room temperature. After the pre-incubation the enzymatic reaction was started by the addition of 2 μl substrate solution (80 μM acetyl-CoA, 240 μM malonyl-CoA). A first fluorescence intensity measurement (time point one) was performed with an Envision multimode reader (Perkin Elmer LAS Germany GmbH) at excitation wavelength 340 nm (lamp mode) and emission wavelength 460 nm. The reaction was incubated for 30 minutes at room temperature. After this the fluorescence intensity was measured again in the Envision using the same parameters as described above (second time point measurement). The data were analysed by subtracting the first time point measurement value from the second time point measurement value (after the enzymatic reaction). The differences of the emission signals were determined. These reflect directly the conversion rate of NADPH. The full value used was the inhibitor-free reaction. A pharmacological zero value was used like GSK837149A (Sigma-Aldrich) in a final concentration of 5-10 μM. The inhibitory values (IC50) were determined using either the program Symyx Assay Explorer® or Condosseo® from GeneData.
In the case of `CC(C)CC(=O)N[C@H]1CC[C@@H](N(C)C(=O)c2ccc(-c3nc4ccccc4o3)cc2)C1` [Compound A35, 4-benzoxazol-2-yl-N-methyl-N-[(1R,3S)-3-(3-methyl-butyrylamino)-cyclopentyl]-benzamide], the IC50 – broadly, the concentration that gives 50% inhibition – was under 300 nM.

For `CCC(=O)N[C@H]1CC[C@@H](N(C)C(=O)c2ccc(-c3ccc4nccn4c3)nc2)C1` [Compound A144, 6-imidazo[1,2-a]pyridin-6-yl-N-methyl-N-((1R,3S)-3-propionylamino-cyclopentyl)-nicotinamide], the concentration for half-maximal inhibition (IC50) is under 300 nM.

On to `CCC(=O)N[C@H]1CC[C@@H](N(C)C(=O)c2ccc(-c3ccc4[nH]ccc4c3)cn2)C1` [Compound A109, 5-(1H-indol-5-yl)-pyridine-2-carboxylic acid methyl-((1R,3S)-3-propionylamino-cyclopentyl)-amide], for which the half-maximal inhibitory concentration (IC50) is under 300 nM.

As for `CCC(=O)N[C@H]1CC[C@@H](N(C)C(=O)c2ccc(-c3nc4ccc(Cl)cc4o3)nc2)C1` [Compound A153, 6-(6-chloro-benzoxazol-2-yl)-N-methyl-N-((1R,3S)-3-propionylamino-cyclopentyl)-nicotinamide], the IC50 was under 300 nM. As for `CCC(=O)N[C@H]1CC[C@@H](N(C)C(=O)c2cnc(-c3cc(F)c4[nH]ccc4c3)c(F)c2)C1` [Compound A142, 5-fluoro-6-(7-fluoro-1H-indol-5-yl)-N-methyl-N-((1R,3S)-3-propionylamino-cyclopentyl)-nicotinamide], the IC50 lay within 300 to 3000 nM. Take `CC(=O)N[C@H]1CC[C@@H](N(C)C(=O)c2ccc(-c3nc4ccccc4o3)cc2)C1` [Compound A18, N-((1R,3S)-3-acetylamino-cyclopentyl)-4-benzooxazol-2-yl-N-methyl-benzamide]: the IC50 is under 300 nM.

As to `CCC(=O)N[C@H]1CC[C@@H](N(C)C(=O)c2ccc(-c3ccc4c(ccn4C)c3)c(F)c2)C1` [Compound A108, 3-fluoro-N-methyl-4-(1-methyl-1H-indol-5-yl)-N-((1R,3S)-3-propionylamino-cyclopentyl)-benzamide], the IC50 is under 300 nM. The same measure for `CCC(=O)N[C@H]1CC[C@@H](N(C)C(=O)c2ccc(-c3ccc4[nH]ncc4c3C)cc2)C1` [Compound A126, N-methyl-4-(4-methyl-1H-indazol-5-yl)-N-((1R,3S)-3-propionylamino-cyclopentyl)-benzamide]: under 300 nM; for `CCC(=O)N[C@H]1CC[C@@H](N(C)C(=O)c2ccc(-c3ccc(C#N)cc3)cc2)C1` [Compound A12, 4′-cyano-biphenyl-4-carboxylic acid methyl-((1R,3S)-3-propionylamino-cyclopentyl)-amide]: under 300 nM. As to `CCC(=O)N[C@H]1CC[C@@H](N(C)C(=O)c2ccc(-c3nc4ccc(F)cc4o3)cc2)C1` [Compound A127, 4-(6-fluoro-benzoxazol-2-yl)-N-methyl-N-((1R,3S)-3-propionylamino-cyclopentyl)-benzamide], the concentration for half-maximal inhibition (IC50) is under 300 nM. For `CCC(=O)N[C@H]1CC[C@@H](N(C)C(=O)c2ccc(-c3nc4ccccc4o3)c(OC)c2)C1` [Compound A13, 4-benzoxazol-2-yl-3-methoxy-N-methyl-N-((1R,3S)-3-propionylamino-cyclopentyl)-benzamide], the IC50 was under 300 nM.

Consider `CN(C(=O)c1ccc(-c2nc3ccccc3o2)cc1)[C@@H]1CC[C@H](NC(=O)C2CCCC2)C1` [Compound A21, 4-benzoxazol-2-yl-N-[(1R,3S)-3-(cyclopentanecarbonyl-amino)-cyclopentyl]-N-methyl-benzamide], for which the concentration for half-maximal inhibition (IC50) is under 300 nM. Regarding `CCC(=O)N[C@H]1CC[C@@H](N(C)C(=O)c2ccc(-c3ccc4cc[nH]c4c3F)nc2)C1` [Compound A157, 6-(7-fluoro-1H-indol-6-yl)-N-methyl-N-((1R,3S)-3-propionylamino-cyclopentyl)-nicotinamide], the half-inhibitory concentration (IC50) is under 300 nM.

As for `CC(C)CCC(=O)N[C@H]1CC[C@@H](N(C)C(=O)c2ccc(-c3nc4ccccc4o3)cc2)C1` [Compound A19, 4-benzoxazol-2-yl-N-methyl-N-[(1R,3S)-3-(4-methyl-pentanoylamino)-cyclopentyl]-benzamide], the IC50 was under 300 nM. As to `CCC(=O)N[C@H]1CC[C@@H](N(C)C(=O)c2ccc(-c3ccc(-n4cccn4)cc3)cc2)C1` [Compound A68, 4′-pyrazol-1-yl-biphenyl-4-carboxylic acid methyl-((1R,3S)-3-propionylamino-cyclopentyl)-amide], the half-maximal inhibitory concentration (IC50) was under 300 nM. `CCC(=O)N[C@H]1CC[C@@H](N(C)C(=O)c2cnc(-c3cc(F)c4[nH]ccc4c3)cc2C)C1` [Compound A141, 6-(7-fluoro-1H-indol-5-yl)-4,N-dimethyl-N-((1R,3S)-3-propionylamino-cyclopentyl)-nicotinamide]: the IC50 was 300 to 3000 nM.

`CCC(=O)N[C@H]1CC[C@@H](N(C)C(=O)c2ccc(-c3ccc4[nH]ccc4c3)c(C)c2)C1` [Compound A101, 4-(1H-indol-5-yl)-3,N-dimethyl-N-((1R,3S)-3-propionylamino-cyclopentyl)-benzamide]: the half-inhibitory concentration (IC50) is under 300 nM.

As for `CCC(=O)N[C@H]1CC[C@@H](N(C)C(=O)c2ccc(-c3ccc4[nH]cc(C)c4c3)cc2)C1` [Compound A115, N-methyl-4-(3-methyl-1H-indol-5-yl)-N-((1R,3S)-3-propionylamino-cyclopentyl)-benzamide], the IC50 was under 300 nM.

Consider `COC(=O)[C@H](CC(=O)N[C@H]1CC[C@@H](N(C)C(=O)c2ccc(-c3nc4ccccc4o3)cc2)C1)NC(C)=O` [Compound A39, (S)-2-acetylamino-N-{(1S,3R)-3-[(4-benzoxazol-2-yl-benzoyl)-methyl-amino]-cyclopentyl}-succinamic acid methyl ester], for which the IC50 was 300 to 3000 nM.

For the compound `CCC(=O)N[C@H]1CC[C@@H](N(C)C(=O)c2cnc(-c3ccc4[nH]ccc4c3)nc2)C1` [Compound A139, 2-(1H-indol-5-yl)-pyrimidine-5-carboxylic acid methyl-((1R,3S)-3-propionylamino-cyclopentyl)-amide], the IC50 was under 300 nM. `CCC(=O)N[C@H]1CC[C@@H](N(C)C(=O)c2ccc(-c3nc4cccc(F)c4o3)cc2)C1` [Compound A49, 4-(7-fluoro-benzoxazol-2-yl)-N-methyl-N-((1R,3S)-3-propionylamino-cyclopentyl)-benzamide]: the 50% inhibitory concentration (IC50) is under 300 nM.

For the compound `CCC(=O)N[C@H]1CC[C@@H](N(C)C(=O)c2ccc(-c3ccc4[nH]ccc4c3F)cc2)C1` [Compound A116, 4-(4-fluoro-1H-indol-5-yl)-N-methyl-N-((1R,3S)-3-propionylamino-cyclopentyl)-benzamide], the 50% inhibitory concentration (IC50) is under 300 nM. For `CCC(=O)N[C@H]1CC[C@@H](N(C)C(=O)c2ccc(-c3ccc4[nH]ncc4c3C)c(C)c2)C1` [Compound A124, 3,N-dimethyl-4-(4-methyl-1H-indazol-5-yl)-N-((1R,3S)-3-propionylamino-cyclopentyl)-benzamide], the IC50 was under 300 nM. The value for `CN(C(=O)c1ccc(-c2nc3ccccc3o2)cc1)[C@@H]1CC[C@H](NC(=O)Cc2ccccc2)C1` [Compound A23, 4-benzoxazol-2-yl-N-methyl-N-((1R,3S)-3-phenylacetylamino-cyclopentyl)-benzamide] was under 300 nM; that for `CCC(=O)N[C@H]1CC[C@@H](N(C)C(=O)c2cnc(-c3ccc4[nH]ccc4c3F)cc2C)C1` [Compound A146, 6-(4-fluoro-1H-indol-5-yl)-4,N-dimethyl-N-((1R,3S)-3-propionylamino-cyclopentyl)-nicotinamide] was under 300 nM. Turning to `CCC(=O)N[C@H]1CC[C@@H](N(C)C(=O)c2ccc(-c3ccc4[nH]ccc4c3C)nn2)C1` [Compound A150, 6-(4-methyl-1H-indol-5-yl)-pyridazine-3-carboxylic acid methyl-((1R,3S)-3-propionylamino-cyclopentyl)-amide], the IC50 is under 300 nM.

Consider `CCC(=O)N[C@H]1CC[C@@H](N(C)C(=O)c2ccc(-c3ccc4c(c3)C(F)(F)C(=O)N4)nc2)C1` [Compound A147, 6-(3,3-difluoro-2-oxo-2,3-dihydro-1H-indol-5-yl)-N-methyl-N-((1R,3S)-3-propionylamino-cyclopentyl)-nicotinamide], for which the half-maximal inhibitory concentration (IC50) lay in the range of 3000 to 50000 nM. Consider `CCC(=O)N[C@H]1CC[C@@H](N(C)C(=O)c2ccc(-c3ccc(C)cc3C)cc2)C1` [Compound A90, 2′,4′-dimethyl-biphenyl-4-carboxylic acid methyl-((1R,3S)-3-propionylamino-cyclopentyl)-amide], for which the half-inhibitory concentration (IC50) was under 300 nM. Consider `CC(C)C(=O)N[C@H]1CC[C@@H](N(C)C(=O)c2ccc(-c3nc4ccccc4o3)cc2)C1` [Compound A17, 4-benzoxazol-2-yl-N-((1R,3S)-3-isobutyrylamino-cyclopentyl)-N-methyl-benzamide], for which the IC50 is under 300 nM.
